Experimental data published in US12570656B2, “Purine compounds for treating disorders” (MARVEL BIOTECHNOLOGY, priority 2020, dated 2026).
Values joined by “and” are separate entries in the source; they are usually repeats but may differ in a detail not shown here. Equal entries are not always repeated. Where two headings read alike, the source gives them in different places.

Key:
ADORA2A = ADORA2A (Homo sapiens, UniProt P29274); assay: GPCR screening, calcium flux (calcium mobilization), antagonist format; type: cell-based
Procedure: To ascertain whether the compounds are suitable A2aR antagonists, the compounds of formulae I, II, III, and IV were subjected to GPCR screening using A2aR as the target. The screening was done using the GPCR Screening and Profiling Services by Eurofins DiscoverX Corporation.
The compounds of formulae I, II, III, and IV were screened for GPCR activity using A2aR as the target.
Cell lines were expanded from freezer stocks according to standard procedures. Cells were seeded in a total volume of 20 μL into black-walled, clear-bottom, Poly-D-lysine coated 384-well microplates and incubated at 37° C. for the appropriate time prior to testing.
Assays were performed in 1× Dye Loading Buffer consisting of 1× Dye, 1× Additive A and 2.5 mM Probenecid in HBSS/20 mM Hepes. Probenicid was prepared fresh. Cells were loaded with dye prior to testing. Media was aspirated from cells and replaced with 20 μL Dye Loading Buffer. Cells were incubated for 30-60 minutes at 37° C.
For antagonist determination, cells were pre-incubated with sample followed by agonist challenge at the EC80 concentration. Intermediate dilution of sample stocks was performed to generate 3× sample in assay buffer. After dye loading, cells were removed from the incubator and 10 μL 3× sample was added. Cells were incubated for 30 minutes at room temperature in the dark to equilibrate plate temperature. Vehicle concentration was 1%. Compound antagonist activity was measured on a FLIPR Tetra (MDS). Calcium mobilization was monitored for 2 minutes and 10 μL EC80 agonist in HBSS/20 mM Hepes was added to the cells 5 seconds into the assay.
For antagonist and negative allosteric modulation mode assays, percentage inhibition is calculated using the following formula: % Inhibition=100%×(1−(mean RFU of test sample−mean RFU of vehicle control)/(mean RFU of EC80 control−mean RFU of vehicle control)).
When the calcium was released, the fluorescence of the dye was increased and the increase was measured in real-time.
FIGS. 1 to 6 show percent reacted (Y) versus concentration in μM (X). Compounds were tested in antagonist mode with the requested GPCR Biosensor Assay. For the antagonist assay, data was normalized to the maximal and minimal response observed in the presence of EC80 ligand and vehicle.

[1] = Brain pharmacokinetics and brain/plasma ratio in male CD-1 mice (1 mg/kg i.v.); type: in vivo; details: for Brain concentration / Brain/plasma concentration ratio / Kp at 5 min / Kp at 0.25 h / Kp at 0.5 h / Kp at 8 h / concentration at 5 min / concentration at 0.25 h / concentration at 0.5 h / concentration at 1 h / concentration at 2 h / concentration at 4 h / concentration at 6 h / concentration at 8 h / Kp at 1 h / Kp at 2 h / Kp at 4 h / Kp at 6 h: 1 mg/kg bolus i.v.; for Brain/plasma concentration ratio: listed as 1a; for Kp at 5 min / Kp at 0.25 h / Kp at 0.5 h / Kp at 8 h: brain and plasma; for concentration at 5 min / concentration at 0.25 h / concentration at 0.5 h / concentration at 1 h / concentration at 2 h / concentration at 4 h / concentration at 6 h / concentration at 8 h: intravenous
Procedure: (§1) Male CD-1 mice were given either bolus 1 mg/kg i.v. or 3 mg/kg p.o. of the indicated compounds and plasma or brain concentrations were measured.
(§2) Where: • C0 concentration extrapolated to time zero following an i.v. dose • tmax time at which maximum concentration is observed • Cmax maximum observed concentration • Apparent t1/2 apparent terminal half-life • AUC0-tlast area under the concentration vs time curve from time 0 to the time of the last measurable concentration • AUC0-inf area under the concentration vs time curve from time 0 to infinity • CL systemic clearance • MRT0-inf mean residence time from time zero to infinity • Vss steady-state volume of distribution • F oral bioavailability=(Dose^iv*AUC^po)/(Dose^po*AUC^iv)*100

[2] = Plasma pharmacokinetics in male CD-1 mice (1 mg/kg i.v. or 3 mg/kg p.o.); details: CD-1, mouse, in vivo
Procedure: as §1, §2

[3] = male, CD-1, mouse, iv, brain, i.v. 1 mg/kg

ADORA2A, sequence (P29274 whole entry): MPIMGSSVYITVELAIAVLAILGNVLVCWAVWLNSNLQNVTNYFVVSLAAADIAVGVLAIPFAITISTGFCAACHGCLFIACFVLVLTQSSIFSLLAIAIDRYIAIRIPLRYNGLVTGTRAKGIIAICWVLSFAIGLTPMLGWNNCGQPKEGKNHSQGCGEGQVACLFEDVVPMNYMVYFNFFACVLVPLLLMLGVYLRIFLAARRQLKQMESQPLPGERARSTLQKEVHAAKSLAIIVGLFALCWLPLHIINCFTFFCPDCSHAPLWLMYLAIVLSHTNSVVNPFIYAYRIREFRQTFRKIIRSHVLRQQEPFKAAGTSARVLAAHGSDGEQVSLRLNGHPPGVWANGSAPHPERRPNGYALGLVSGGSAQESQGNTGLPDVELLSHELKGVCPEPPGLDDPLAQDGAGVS

Curve Bottom (ADORA2A; Antagonist format): 1.23
Curve Top (ADORA2A; Antagonist format): 99
Hill (ADORA2A; Antagonist format): 1.4103
IC50 (ADORA2A; Antagonist format, EC80 0.021 μM NECA, read-out: RC50 (IC50)): 0.0885 µM
Emax (ADORA2A; Antagonist format, read-out: Max Response): 98.1%
IC50 (ADORA2A; text to FIGS. 1-4, 6, antagonist mode, read-out: half maximal inhibitory concentration (IC50)): 0.0885 µM and 0.0755 µM
Brain concentration ([1]; 5 min, individual animals 1-3): 851 ng/g and 682 ng/g
Brain/plasma concentration ratio ([1]; 5 min, individual animals 1-3): 0.867 and 0.751
Brain concentration ([1]; 0.25 h, individual animals 1-3): 426 ng/g and 665 ng/g
Brain/plasma concentration ratio ([1]; 0.25 h, individual animals 1-3): 0.789 and 0.795
Brain concentration ([1]; 0.5 h, individual animals 1-3): 282 ng/g and 381 ng/g
Brain/plasma concentration ratio ([1]; 0.5 h, individual animals 1-3): 0.535 and 0.779
Brain concentration ([1]; 1 h, individual animals 1-3): 318 ng/g and 175 ng/g
Brain/plasma concentration ratio ([1]; 1 h, individual animals 1-3): 0.763 and 0.550
Brain concentration ([1]; 2 h, individual animals 1-3): 195 ng/g and 185 ng/g
Brain/plasma concentration ratio ([1]; 2 h, individual animals 1-3): 0.739 and 0.661
Brain concentration ([1]; 4 h, individual animals 1-3): 158 ng/g and 198 ng/g
Brain/plasma concentration ratio ([1]; 4 h, individual animals 1-3): 0.745 and 0.783
Brain concentration ([1]; 6 h, individual animals 1-3): 138 ng/g and 122 ng/g
Brain/plasma concentration ratio ([1]; 6 h, individual animals 1-3): 0.683 and 0.758
Brain concentration ([1]; 8 h, individual animals 1-3): 118 ng/g and 114 ng/g
Brain/plasma concentration ratio ([1]; 8 h, individual animals 1-3): 0.771 and 0.809
AUC0-tlast ([1]; brain, i.v. 1 mg/kg): 1,447 h*ng/g
AUC(0-inf) ([1]; brain, i.v. 1 mg/kg): 2807^a h*ng/g
Kp at 5 min ([1]; male, CD-1, mouse, iv, 1 mg/kg, 5 min, individual animals 1-3, read-out: Brain/plasma concentration ratio): 0.757
Kp at 5 min ([1]; male, CD-1, mouse, iv, 1 mg/kg, 5 min, read-out: Brain/plasma concentration ratio, Mean): 0.792
Kp at 0.25 h ([1]; male, CD-1, mouse, iv, 1 mg/kg, 0.25 h, individual animals 1-3, read-out: Brain/plasma concentration ratio): 0.635
Kp at 0.25 h ([1]; male, CD-1, mouse, iv, 1 mg/kg, 0.25 h, read-out: Brain/plasma concentration ratio, Mean): 0.74
Kp at 0.5 h ([1]; male, CD-1, mouse, iv, 1 mg/kg, 0.5 h, individual animals 1-3, read-out: Brain/plasma concentration ratio): 0.731
Kp at 0.5 h ([1]; male, CD-1, mouse, iv, 1 mg/kg, 0.5 h, read-out: Brain/plasma concentration ratio, Mean): 0.682
Kp at 8 h ([1]; male, CD-1, mouse, iv, 1 mg/kg, 8 h, individual animals 1-3, read-out: Brain/plasma concentration ratio): 0.902
Kp at 8 h ([1]; male, CD-1, mouse, iv, 1 mg/kg, 8 h, read-out: Brain/plasma concentration ratio, Mean): 0.827
concentration at 5 min ([1]; male, CD-1, mouse, brain, 1 mg/kg, 5 min, individual animals 1-3, read-out: Brain concentration): 818 ng/g
concentration at 5 min ([1]; male, CD-1, mouse, brain, 1 mg/kg, 5 min, read-out: Brain concentration, Mean): 784 ng/g
concentration at 0.25 h ([1]; male, CD-1, mouse, brain, 1 mg/kg, 0.25 h, individual animals 1-3, read-out: Brain concentration): 373 ng/g
concentration at 0.25 h ([1]; male, CD-1, mouse, brain, 1 mg/kg, 0.25 h, read-out: Brain concentration, Mean): 488 ng/g
concentration at 0.5 h ([1]; male, CD-1, mouse, brain, 1 mg/kg, 0.5 h, individual animals 1-3, read-out: Brain concentration): 377 ng/g
concentration at 0.5 h ([1]; male, CD-1, mouse, brain, 1 mg/kg, 0.5 h, read-out: Brain concentration, Mean): 347 ng/g
concentration at 1 h ([1]; male, CD-1, mouse, brain, 1 mg/kg, 1 h, individual animals 1-3, read-out: Brain concentration): 269 ng/g
concentration at 1 h ([1]; male, CD-1, mouse, brain, 1 mg/kg, 1 h, read-out: Brain concentration, Mean): 254 ng/g
concentration at 2 h ([1]; male, CD-1, mouse, brain, 1 mg/kg, 2 h, individual animals 1-3, read-out: Brain concentration): 159 ng/g
concentration at 2 h ([1]; male, CD-1, mouse, brain, 1 mg/kg, 2 h, read-out: Brain concentration, Mean): 180 ng/g
concentration at 4 h ([1]; male, CD-1, mouse, brain, 1 mg/kg, 4 h, individual animals 1-3, read-out: Brain concentration): 120 ng/g
concentration at 4 h ([1]; male, CD-1, mouse, brain, 1 mg/kg, 4 h, read-out: Brain concentration, Mean): 159 ng/g
concentration at 6 h ([1]; male, CD-1, mouse, brain, 1 mg/kg, 6 h, individual animals 1-3, read-out: Brain concentration): 91.2 ng/g
concentration at 6 h ([1]; male, CD-1, mouse, brain, 1 mg/kg, 6 h, read-out: Brain concentration, Mean): 117 ng/g
concentration at 8 h ([1]; male, CD-1, mouse, brain, 1 mg/kg, 8 h, individual animals 1-3, read-out: Brain concentration): 110 ng/g
concentration at 8 h ([1]; male, CD-1, mouse, brain, 1 mg/kg, 8 h, read-out: Brain concentration, Mean): 114 ng/g
Kp at 1 h ([1]; male, CD-1, mouse, brain/plasma, iv, 1 mg/kg, 1 h, individual animals 1-3, read-out: Brain/plasma concentration ratio): 0.714
Kp at 1 h ([1]; male, CD-1, mouse, brain/plasma, iv, 1 mg/kg, 1 h, read-out: Brain/plasma concentration ratio, Mean): 0.675
Kp at 2 h ([1]; male, CD-1, mouse, brain/plasma, iv, 1 mg/kg, 2 h, individual animals 1-3, read-out: Brain/plasma concentration ratio): 0.572
Kp at 2 h ([1]; male, CD-1, mouse, brain/plasma, iv, 1 mg/kg, 2 h, read-out: Brain/plasma concentration ratio, Mean): 0.657
Kp at 4 h ([1]; male, CD-1, mouse, brain/plasma, iv, 1 mg/kg, 4 h, individual animals 1-3, read-out: Brain/plasma concentration ratio): 0.8
Kp at 4 h ([1]; male, CD-1, mouse, brain/plasma, iv, 1 mg/kg, 4 h, read-out: Brain/plasma concentration ratio, Mean): 0.776
Kp at 6 h ([1]; male, CD-1, mouse, brain/plasma, iv, 1 mg/kg, 6 h, individual animals 1-3, read-out: Brain/plasma concentration ratio): 0.86
Kp at 6 h ([1]; male, CD-1, mouse, brain/plasma, iv, 1 mg/kg, 6 h, read-out: Brain/plasma concentration ratio, Mean): 0.767
Kp ([1]; male, CD-1, mouse, brain/plasma, iv, 1 mg/kg, i.v. 1 mg/kg, read-out: Brain/plasma AUC0-tlast ratio): 0.71
Cmax [1, 3]: 784 ng/g
Tmax [1, 3]: 5 min
half-life ([1]; male, CD-1, mouse, iv, brain, i.v. 1 mg/kg, read-out: Apparent t1/2 (converted)): 8.27 h
MRT inf ([1]; male, CD-1, mouse, iv, brain, i.v. 1 mg/kg, read-out: MRT0-inf): 11.2 h
bioavailability [2]: 76%
AUC(0-inf) ([2]; iv, 1 mg/kg): 3240 ng·h/mL
AUC(0-t) ([2]; iv, 1 mg/kg): 2040 ng·h/mL
C0 ([2]; iv, 1 mg/kg): 1220 ng/mL
Cmax ([2]; iv, 1 mg/kg): 990 ng/mL
MRT inf ([2]; iv, 1 mg/kg): 8.02 h
Tmax ([2]; iv, 1 mg/kg): 0.0833 h
Vd ([2]; iv, 1 mg/kg): 2.47 L/kg
clearance ([2]; iv, 1 mg/kg): 5.13 mL/min/kg
half-life ([2]; iv, 1 mg/kg): 6 h
AUC(0-inf) ([2]; po, 3 mg/kg): 5090 ng·h/mL
AUC(0-t) ([2]; po, 3 mg/kg): 4650 ng·h/mL
Cmax ([2]; po, 3 mg/kg): 424 ng/mL
MRT inf ([2]; po, 3 mg/kg): 11.1 h
Tmax ([2]; po, 3 mg/kg): 4 h
half-life ([2]; po, 3 mg/kg): 6.52 h
SMILES: CCn1c(=O)c2c(nc(/C=C/c3ccc(OC(F)F)c(OC(F)F)c3)n2C)n(CC)c1=O [Formula I, 8-[(E)-2-[3,4-bis(difluoromethoxy)phenyl]vinyl]-1,3-diethyl-7-methyl-purine-2,6-dione;hydrofluoride]
